Assay [1] concerns the target T1, β1-adrenergic receptor (B1-AR) (Homo sapiens, UniProt P08588).
T1 construct: expressed in transfected cells
Briefly: cAMP Gs dynamic HTRF assay, cells expressing β1-adrenergic receptor. It is filed as cell-based. Conditions: CHO-K1 (HitHunter) cells; read-out: Average pEC50 [Receptor subtype: B1-AR; Cell type: CHO-K1 (HitHunter)] (converted). The procedure: (§1) cAMP homogeneous time-resolved fluorescence (HTRF): experimental methods. Compound efficacy is determined using the cAMP Gs dynamic HTRF assay (Cisbio, catalog #62AM4PEC) largely following the manufacturer's instructions, also detailed below.
(§2) Standard serial dilution curves are 10-point, 5-fold dilutions starting from a highest concentration of 10 μM. […] Assay plates are centrifuged at 500×g for 10 seconds. Compounds and IBMX are prepared at 2× final dose to compensate for addition of cells.
(§3) Cell preparation: 1× stimulation buffer, washing PBS (Dulbecco's phosphate-buffered saline, —Mg —Ca; Caisson Labs, catalog #PBL01), assay PBS (Dulbecco's phosphate-buffered saline, +Mg, +Ca; Caisson Labs, catalog #PBL02) and Versene (0.02% EDTA disodium salt solution in PBS without calcium or magnesium; Caisson Labs, catalog #EDL01) are pre-warmed to 37° C. Cells expressing beta-adrenergic receptor were washed in washing PBS to remove growth medium and then released from the surface by incubating with Versene for 5-10 minutes at 37° C. Cells are harvested using assay PBS, counted manually by hemocytometer or by an automated cell counter, pelleted by centrifugation (200×g, 5 minutes) and resuspended in 37° C. 1× stimulation buffer to a final density of […]. 5 μL of the suspended cell solution (7500 cell total) are added to all wells of the 384 well assay plate, the assay plate was covered with an Axygen® plate seal (Corning PCR-SP) and incubated in a humidified 37° C. environment supplemented with 5% CO2 for 30 minutes.
(§4) HTRF reagent addition, reading and data analysis: After 30 minutes of cell stimulation with test compound, the assay plates are centrifuged at 500×g for 10 seconds, and incubation was stopped with the addition of 5 μL cAMP-D2 acceptor, diluted 1:21 in detection and lysis buffer 2 (Cisbio 62CL2FDF) was added to all cells. Subsequently, 5 μL Anti-cAMP-Eu Donor, diluted 1:21 in detection and lysis buffer 2, was added to cells. Plates were sealed and reactions gently ‘vortexed’ at 900 rpm on a Heidolph Titramax 1000 for at least 30 minutes at room temperature. Plates are centrifuged again at 500×g for 10 seconds, and HTRF was measured using a Tecan Spark plate reader at 50 flashes per well. […] Potency estimates (EC50 and pEC50) are derived from the four-parameter nonlinear regression of the concentration-effect curve and an estimate of relative efficacy is determined by comparing the magnitude of the test compound HTRF signal window (min-max dose) with the signal window of the full agonist control, isoproterenol.
On the technique in general: In TR-FRET formats the signal depends on donor and acceptor labels being close together.

Assay [2] concerns the target T2, β2-adrenergic receptor (B2-AR) (Homo sapiens, UniProt P07550).
T2 construct: expressed in transfected cells
The assay can be described thus: cAMP Gs dynamic HTRF assay, cells expressing β2-adrenergic receptor. Conditions: CHO-K1 (HitHunter) cells; read-out: Average pEC50 [Receptor subtype: B2-AR; Cell type: CHO-K1 (HitHunter)] (converted). It is filed as cell-based. The procedure: as §1, §2, §3, §4

T2 sequence (P07550 whole entry): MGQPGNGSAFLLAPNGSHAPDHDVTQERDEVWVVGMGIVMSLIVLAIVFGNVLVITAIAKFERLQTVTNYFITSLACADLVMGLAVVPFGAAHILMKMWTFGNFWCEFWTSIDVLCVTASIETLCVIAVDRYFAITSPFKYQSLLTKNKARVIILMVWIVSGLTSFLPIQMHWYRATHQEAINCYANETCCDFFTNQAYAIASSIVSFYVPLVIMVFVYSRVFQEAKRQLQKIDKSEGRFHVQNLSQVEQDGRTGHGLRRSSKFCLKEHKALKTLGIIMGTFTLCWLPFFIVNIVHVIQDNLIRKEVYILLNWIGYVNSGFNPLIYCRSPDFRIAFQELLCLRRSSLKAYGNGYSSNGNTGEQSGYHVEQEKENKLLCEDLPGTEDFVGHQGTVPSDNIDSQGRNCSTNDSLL
T1 sequence (P08588 whole entry): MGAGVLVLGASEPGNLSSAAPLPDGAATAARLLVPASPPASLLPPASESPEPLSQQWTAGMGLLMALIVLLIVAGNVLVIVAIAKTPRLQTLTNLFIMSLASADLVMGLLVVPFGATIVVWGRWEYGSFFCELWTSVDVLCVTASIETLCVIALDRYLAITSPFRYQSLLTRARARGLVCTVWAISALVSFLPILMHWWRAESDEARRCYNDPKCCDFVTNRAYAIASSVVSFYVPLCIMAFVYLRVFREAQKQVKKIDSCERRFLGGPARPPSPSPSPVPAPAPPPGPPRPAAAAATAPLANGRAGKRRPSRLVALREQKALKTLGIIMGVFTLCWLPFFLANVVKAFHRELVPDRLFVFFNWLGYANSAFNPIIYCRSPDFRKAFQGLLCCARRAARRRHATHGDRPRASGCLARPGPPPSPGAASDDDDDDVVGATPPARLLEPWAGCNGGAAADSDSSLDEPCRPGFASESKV

For `CC(C)(C)NC[C@@H](O)c1cccc2ccc(C(F)(F)F)nc12` [Compound 04-86], the EC50 in assay [1] and in assay [2] was 100 to 1000 nM in each case.
As to `Cc1noc2ccc([C@H](O)CNC(C)(C)C)cc12` [Compound 04-52], the EC50 is 100 to 1000 nM in assay [1] and 10 to 100 nM in assay [2].
Consider `CC(C)NC[C@H](O)c1cccc2[nH]c3ccccc3c12` [Compound 04-56], for which the EC50 in assay [1] and in assay [2] was less than 10 nM in each case.
On to `CC(C)(C)NC[C@H](O)c1ccnc2[nH]c(=O)ccc12` [Compound 04-13], for which the EC50 was 10 to 100 nM in assay [1] and less than 10 nM in assay [2].
Turning to `CC(C)(C)NC[C@@H](O)c1cccc2nccnc12` [Compound 04-74], the EC50 in assay [1] and in assay [2] was more than 1000 nM throughout.
In the case of `CC(C)(C)NC[C@H](O)c1cccc2[nH]cc(F)c12` [Compound 04-112], the EC50 in assay [1] and in assay [2] was less than 10 nM throughout.
For the compound `CC(C)(C)NCC(O)c1ccc2ccc(C(F)(F)F)cc2[n+]1[O-]` (centres unmarked) [Compound 04-137], the EC50 is 100 to 1000 nM in assay [1] and 10 to 100 nM in assay [2].
Regarding `Cc1cc(N)nc([C@H](O)CNC(C)(C)C)c1` [Compound 02-12], the EC50 in assay [1] and in assay [2] was more than 1000 nM each time.
Consider `CC(C)(C)NC[C@H](O)c1cccc2c1C(C)(C)C(=O)N2` [Compound 04-102], for which the EC50 in assay [1] and in assay [2] was 100 to 1000 nM throughout.
Consider `CC(C)(C)NC[C@H](O)c1nccc2[nH]c(=O)ccc12` [Compound 04-5, (S)-5-(2-(tert-butylamino)-1-hydroxyethyl)-1,6-naphthyridin-2(1H)-one], for which the EC50 in assay [1] and in assay [2] was more than 1000 nM each time.
`CC(C)(C)NC[C@H](O)c1ccc2c(n1)NCCO2` [Compound 04-10]: the EC50 in assay [1] and in assay [2] was 10 to 100 nM in each case.
As for `O[C@H](CNC1(C(F)(F)F)CC1)c1cccc2cccnc12` [Compound 04-68], the EC50 in assay [1] and in assay [2] was more than 1000 nM each time.
On to `CC(C)(C)NC[C@H](O)c1cc(C#N)cc2[nH]ncc12` [Compound 04-104], for which the results for the EC50 in assay [1] and in assay [2] were 100 to 1000 nM and less than 10 nM, respectively.
`COc1ccc(C[C@@H](C)NC[C@H](O)c2cccc3[nH]c4ccccc4c23)cc1` [Compound 04-125]: the EC50 in assay [1] is 10 to 100 nM; in assay [2], less than 10 nM.
As for `CC(C)(C)NC[C@H](O)c1cccc2c1CC(=O)N2` [Compound 04-110], the EC50 in assay [1] and in assay [2] was more than 1000 nM each time.
As to `O=c1ccc2c([C@@H](O)CNC3CCC3)cccc2[nH]1` [Compound 04-142], the EC50 in assay [1] and in assay [2] was less than 10 nM each time.
In the case of `CC(C)(C)NC[C@H](O)c1cccc2[nH]ccc12` [Compound 04-105], the EC50 in assay [1] and in assay [2] was more than 1000 nM each time.
Consider `O[C@@H](CNC1(C(F)(F)F)CC1)c1cccc2cccnc12` [Compound 04-67], for which the EC50 in assay [1] and in assay [2] was more than 1000 nM in each case.
Consider `CC(C)(C)NC[C@H](O)c1cccc2c1C(F)(F)C(=O)N2` [Compound 04-158], for which the EC50 was 10 to 100 nM in assay [1] and less than 10 nM in assay [2].
Turning to `CC(C)(C)NC[C@@H](O)c1ccc(F)c2cccnc12` [Compound 04-79], the EC50 in assay [1] and in assay [2] was 100 to 1000 nM in each case.
Take `Cc1cc(N)nc([C@@H](O)CNC(C)(C)C)c1` [Compound 02-13]: the EC50 in assay [1] and in assay [2] was 10 to 100 nM each time.
As to `CC(C)NC[C@H](O)c1cc(F)cc2[nH]ncc12` [Compound 04-149], the EC50 in assay [1] and in assay [2] was less than 10 nM in each case.
With `Cn1c(=O)ccc2c([C@@H](O)CNC(C)(C)C)cccc21` [Compound 04-2], the EC50 is 10 to 100 nM in assay [1] and less than 10 nM in assay [2].
Turning to `CC(C)(C)NC[C@@H](O)c1cccc(O)n1` [Compound 02-8], the EC50 in assay [1] and in assay [2] was more than 1000 nM each time.
As for `CC(C)(C)NC[C@H](O)c1cccc2c(C#N)ccnc12` [Compound 04-78], the EC50 in assay [1] is 100 to 1000 nM.
For the compound `Cc1noc2ccc([C@@H](O)CNC(C)(C)C)cc12` [Compound 04-51], the EC50 in assay [1] and in assay [2] was more than 1000 nM throughout.
On to `Cn1ncc2cc([C@@H](O)CNC(C)(C)C)ccc21` [Compound 04-49], for which the EC50 in assay [1] and in assay [2] was more than 1000 nM throughout.
On to `CC(C)(C)NC[C@H](O)c1ccc(F)c2[nH]c(=O)ccc12` [Compound 04-4], for which the EC50 in assay [1] and in assay [2] was less than 10 nM each time.
Regarding `CC(C)(C)NC[C@H](O)c1cccc2[nH]ncc12` [Compound 04-25], the EC50 in assay [1] and in assay [2] was less than 10 nM throughout.
In the case of `CC(C)(C)NC[C@H](O)c1cccc2[nH]c3ccccc3c12` [Compound 04-57], the EC50 in assay [1] and in assay [2] was less than 10 nM throughout.
On to `Cc1nc([C@@H](O)CNC(C)(C)C)cnc1N` [Compound 02-4], for which the EC50 in assay [1] was 100 to 1000 nM; in assay [2] it was more than 1000 nM.
As for `Cn1ncc2c([C@H](O)CNC(C)(C)C)cccc21` [Compound 04-28], the EC50 in assay [1] was 100 to 1000 nM; in assay [2], more than 1000 nM.
Regarding `Cn1ncc2c([C@@H](O)CNC(C)(C)C)cccc21` [Compound 04-27], the values for the EC50 in assay [1] and in assay [2] were less than 10 nM and 10 to 100 nM, respectively.
With `Cc1nc(N)c(C#N)cc1[C@@H](O)CNC(C)(C)C` [Compound 02-10], the figures for the EC50 in assay [1] and in assay [2] were more than 1000 nM and 100 to 1000 nM, respectively.
In the case of `CC(C)(C)NC[C@H](O)c1ccc2c(n1)OCCO2` [Compound 04-7], the EC50 in assay [1] and in assay [2] was 10 to 100 nM throughout.
Regarding `CC(C)(C)NC[C@H](O)c1cc(F)c2[nH]cnc2c1` [Compound 04-156], the figures for the EC50 in assay [1] and in assay [2] were 10 to 100 nM and less than 10 nM, respectively.
Turning to `CC(C)(C)NC[C@H](O)c1cccc2[nH]c3ncccc3c12` [Compound 04-131], the EC50 in assay [1] and in assay [2] was less than 10 nM throughout.
On to `CC(C)(C)NC[C@H](O)c1cccc2c1CCCC(=O)N2` [Compound 04-129], for which the EC50 in assay [1] is more than 1000 nM; in assay [2] it was 10 to 100 nM.
In the same order, the values of `CC(C)(C)NC[C@H](O)c1ccc2c(n1)NCC2` [Compound 04-11] are 10 to 100 nM and 10 to 100 nM.
As to `Cc1cc2c([C@H](O)CNC(C)(C)C)cccc2[nH]c1=O` [Compound 04-17], the EC50 in assay [1] is 100 to 1000 nM; in assay [2] it was more than 1000 nM.
`Cc1nc(N)c(Cl)cc1[C@H](O)CNC(C)(C)C` [Compound 02-9]: the EC50 in assay [1] was 100 to 1000 nM; in assay [2] it was 10 to 100 nM.
For `CC(C)(C)NC[C@@H](O)c1ccc(F)c2[nH]c(=O)ccc12` [Compound 04-16], the figures for the EC50 in assay [1] and in assay [2] were 100 to 1000 nM and 10 to 100 nM, respectively.
Regarding `CC(C)(C)NC[C@@H](O)c1c(F)ccc2cccnc12` [Compound 04-89], in assay [1], the EC50 was more than 1000 nM.
With `CC(C)(C)NC[C@@H](O)c1cccc2c(C(F)(F)F)ccnc12` [Compound 04-70], in assay [2], the EC50 was less than 10 nM.
As for `Cc1noc2cccc([C@H](O)CNC(C)(C)C)c12` [Compound 04-30], in assay [1], the EC50 was more than 1000 nM.
With `CC(C)(C)NC[C@H](O)c1ccc2c(c1)CC(=O)N2` [Compound 04-121], the EC50 in assay [2] was more than 1000 nM.
Consider `CC(C)(C)NC[C@H](O)c1nc(C(F)(F)F)cc2ccccc12` [Compound 04-91], for which the EC50 in assay [1] is more than 1000 nM.
In the case of `CC(C)(C)NC[C@@H](O)c1cccc2c(C#N)ccnc12` [Compound 04-77], in assay [2], the EC50 was more than 1000 nM.
